Consider six compounds from patent US20200385777A1, “METHOD FOR DETERMINING DYSBIOSIS IN THE INTESTINAL MICROBIOME” (EVOLVE BIOSYSTEMS, INC., priority 2018, published 2020).

In assay [1] the test system is isolate 7084-4. Briefly: MIC microdilution, fecal isolate 7084-4. It counts as cell-based. The note with it: for MIC: read-out: Minimum inhibitory concentration (MIC). Here is the method: (§1) Whole genome sequencing and assembly of bacterial isolates. […] Selected isolates were grown in 20 ml LB broth overnight at 37° C. Cultures were aliquoted into 1 ml aliquots, centrifuged at 10,000×g for 5 min and the supernatant was removed. Cell pellets were resuspended in DNA/RNA Shield solution provided in DNA/RNA Shield Microbe Lysis tubes (Zymo Research, Irvine Calif.) and transferred into lysis tubes. High-molecular weight genomic DNA was extracted using the Quick-DNA Fecal/Soil
(§2) Minimal inhibitory concentrations. […] Carbenicillin was added to growth media for transformed strains at a concentration of 100 μg/ml. The microtiter plates were incubated for 24 h at 37° C. The optical density (OD) of each well was measured at 600 nm using an automated microtiter plate reader (BIO-TEK, Synergy HT). The MIC corresponded to the lowest antibiotic concentration at which no growth was detected. All tests were performed in triplicate
A general note: Dilution methods test growth across graded concentrations, often in twofold steps.

For assay [2], the system named is isolate 7005-11. As to the kind of experiment: MIC microdilution, fecal isolate 7005-11. The note with it: for MIC: read-out: Minimum inhibitory concentration (MIC). It counts as cell-based. Here is the method:
as §1, §2

Assay [3] relates to isolate 7084-1. Briefly: MIC microdilution, fecal isolate 7084-1. It counts as cell-based. As to conditions: for MIC: read-out: Minimum inhibitory concentration (MIC). Here is the method: as §1, §2
The test system of assay [4] is DH5α. As to the kind of experiment: MIC microdilution, DH5α. It counts as cell-based. As to conditions: for MIC: read-out: Minimum inhibitory concentration (MIC). On the procedure:
as §2

The subject of assay [5] is isolate 7122-9. Briefly: MIC microdilution, fecal isolate 7122-9. Format: cell-based. As to conditions: for MIC: read-out: Minimum inhibitory concentration (MIC). On the procedure: as §1, §2
For assay [6], the system named is isolate 7005-13. Briefly: MIC microdilution, fecal isolate 7005-13. It counts as cell-based. The note with it: for MIC: read-out: Minimum inhibitory concentration (MIC). On the procedure:
as §1, §2

Assay [7] deals with isolate 7122-2. As to the kind of experiment: MIC microdilution, fecal isolate 7122-2. It counts as cell-based. As to conditions: for MIC: read-out: Minimum inhibitory concentration (MIC). Here is the method: as §1, §2
In assay [8] the test system is isolate 7084-5. As to the kind of experiment: MIC microdilution, fecal isolate 7084-5. Format: cell-based. The note with it: for MIC: read-out: Minimum inhibitory concentration (MIC). Here is the method:
as §1, §2

Assay [9] deals with isolate 7122-1. As to the kind of experiment: MIC microdilution, fecal isolate 7122-1. Format: cell-based. As to conditions: for MIC: read-out: Minimum inhibitory concentration (MIC). Here is the method: as §1, §2
The subject of assay [10] is isolate 7174-5. As to the kind of experiment: MIC microdilution, fecal isolate 7174-5. Format: cell-based. The note with it: for MIC: read-out: Minimum inhibitory concentration (MIC). Here is the method:
as §1, §2

Assay [11] deals with isolate 7174-4. Briefly: MIC microdilution, fecal isolate 7174-4. Format: cell-based. As to conditions: for MIC: read-out: Minimum inhibitory concentration (MIC). On the procedure:
as §1, §2

For assay [12], the system named is isolate 7005-5. As to the kind of experiment: MIC microdilution, fecal isolate 7005-5. It counts as cell-based. As to conditions: for MIC: read-out: Minimum inhibitory concentration (MIC). On the procedure: as §1, §2
Assay [13] concerns isolate 7174-2. Briefly: MIC microdilution, fecal isolate 7174-2. It counts as cell-based. As to conditions: for MIC: read-out: Minimum inhibitory concentration (MIC). On the procedure:
as §1, §2

Assay [14] concerns isolate 7005-9. Briefly: MIC microdilution, fecal isolate 7005-9. It counts as cell-based. As to conditions: for MIC: read-out: Minimum inhibitory concentration (MIC). Here is the method:
as §1, §2

Assay [15] concerns bacteria isolated from EMB agar from fecal samples of control infants. As to the kind of experiment: MIC, fecal isolates of control infants taken together. It counts as cell-based, Escherichia coli; Raoultella planticola. As to conditions: all fecal isolates. On the procedure:
To confirm the presence of full length, functional ARGs and the relationship of these ARGs to individual resistance phenotypes at the strain level, bacteria isolated from EMB agar were obtained from the fecal samples of four representative control infants. Whole-genome sequencing of twelve isolates was performed on a MinION sequencer and assembly led to an average coverage of 18× (min 5.4; max 40). Taxonomic identification was confirmed via BLASTN against the NCBI nucleotide database (https://www.ncbl.nlrn.nih.gov/nucleotide) showing three isolates classified as Raoultella planticola and the remaining nine as Escherichia coli. The CARD protein sequences collection was used as query against the twelve assembled isolates via TBLASTN. […] The latter genes are likely absent on the E. coli and R. planticola genomes and present on different species.
Whole genome sequencing and assembly of bacterial isolates. […]
Minimal inhibitory concentrations. Minimal inhibitory concentrations (MICs) were determined according to Clinical and Laboratory Standards Institute guidelines for microdilution susceptibility testing {Wikler, 2006}. […] The optical density (OD) of each well was measured at 600 nm using an automated microtiter plate reader (BIO-TEK, Synergy HT). The MIC corresponded to the lowest antibiotic concentration at which no growth was detected. […]

On to `CO/N=C(\C(=O)N[C@@H]1C(=O)N2C(C(=O)O)=C(COC(C)=O)CS[C@H]12)c1csc(N)n1` [Cefotaxime], for which the “Resistant/Susceptible according to breakpoints for clinical resistance” value (from here on “Resistant/Susceptible according”) is “(S)” in assay [1] (isolate 7084-4); “(R)” in assay [2] (isolate 7005-11); “(S)” in [3] (isolate 7084-1); “(S)” in assay [4]; “(S)” in [5] (isolate 7122-9); “(R)” in assay [6] (isolate 7005-13). For the same compound, the “Resistant/Susceptible according” value is reported as “(S)” in assay [7] (isolate 7122-2); “(S)” in assay [8] (isolate 7084-5); “(S)” in assay [9] (isolate 7122-1); “(S)” in assay [10] (isolate 7174-5); “(S)” in assay [11] (isolate 7174-4); “(R)” in assay [12] (isolate 7005-5). Besides, the “Resistant/Susceptible according” value is reported as “(S)” in [13] (isolate 7174-2) and “(R)” in [14] (isolate 7005-9). Besides, the MIC in [1] is less than 4 µg/mL; in assay [2], 512 µg/mL; in [3] it was less than 4 µg/mL; in [4] it was less than 4 µg/mL; in assay [5], less than 4 µg/mL; in assay [6] it was 512 µg/mL. For the same compound, the MIC in assay [7] was less than 4 µg/mL; in assay [8], less than 4 µg/mL; in assay [9], less than 4 µg/mL; in assay [10] it was less than 4 µg/mL; in assay [11] it was less than 4 µg/mL; in [12], 32 µg/mL. Further, the MIC in [13] is less than 4 µg/mL; in assay [14], 128 µg/mL.
With `CC1(C)S[C@@H]2[C@H](NC(=O)[C@H](N)c3ccccc3)C(=O)N2[C@H]1C(=O)O` [Ampicillin], the “Resistant/Susceptible according” value in [1] (isolate 7084-4) is recorded as “(R)”; in [2] (isolate 7005-11), “(R)”; in [3] (isolate 7084-1), “(R)”; in assay [4], “(S)”; in [5] (isolate 7122-9), “(S)”; in assay [6] (isolate 7005-13) it was “(R)”. The “Resistant/Susceptible according” value in assay [7] (isolate 7122-2) is recorded as “(S)”; in [8] (isolate 7084-5), “(R)”; in [9] (isolate 7122-1), “(S)”; in [10] (isolate 7174-5), “(R)”; in [11] (isolate 7174-4), “(R)”; in [12] (isolate 7005-5), “(R)”. The “Resistant/Susceptible according” value in assay [13] (isolate 7174-2) and in assay [14] (isolate 7005-9) was “(R)” in each case. Further, the MIC turned out to be 512 µg/mL in assay [1]; 64 µg/mL in [2]; 512 µg/mL in assay [3]; 4 µg/mL in assay [4]; 16 µg/mL in assay [5]; 64 µg/mL in assay [6]. The MIC came to 16 µg/mL in assay [7]; 512 µg/mL in [8]; 16 µg/mL in assay [9]; 512 µg/mL in [10]; 512 µg/mL in assay [11]; 128 µg/mL in assay [12]. The MIC was 512 µg/mL in assay [13] and 128 µg/mL in assay [14]. For the same compound, the “Resistance among the isolates” value in [15] is on record as “With the exception of three isolates obtained from the same infant (7174), all of the isolates displayed resistance”.
Consider `Cc1nnc(SCC2=C(C(=O)O)N3C(=O)[C@@H](NC(=O)Cn4cnnn4)[C@H]3SC2)s1` [Cefazolin], for which the MIC was 32 µg/mL in [1]; 64 µg/mL in [2]; 32 µg/mL in assay [3]; less than 4 µg/mL in assay [4]; 8 µg/mL in assay [5]; 64 µg/mL in assay [6]. Moreover, the MIC in [7] turned out to be 8 µg/mL; in [8] it was 32 µg/mL; in [9], 8 µg/mL; in assay [10], 512 µg/mL; in assay [11], 512 µg/mL; in assay [12] it was 64 µg/mL. Further, the MIC in assay [13] and in [14] was 64 µg/mL in each case.
Take Gentamicin: the “Minimum inhibitory concentration (MIC)” value in [1] (isolate 7084-4), in assay [2] (isolate 7005-11), in [3] (isolate 7084-1), in [4], in [5] (isolate 7122-9) and in assay [6] (isolate 7005-13) was less than 4 µg/mL each time. Also, the “Minimum inhibitory concentration (MIC)” value in assay [7] (isolate 7122-2), in assay [8] (isolate 7084-5), in assay [9] (isolate 7122-1), in assay [10] (isolate 7174-5), in assay [11] (isolate 7174-4) and in [12] (isolate 7005-5) was less than 4 µg/mL each time. The “Minimum inhibitory concentration (MIC)” value in assay [13] (isolate 7174-2) and in assay [14] (isolate 7005-9) was less than 4 µg/mL each time. Also, the “Resistant/Susceptible according” value in [1] (isolate 7084-4), in [2] (isolate 7005-11), in assay [3] (isolate 7084-1), in assay [4], in assay [5] (isolate 7122-9) and in [6] (isolate 7005-13) was “(S)” each time. Moreover, the “Resistant/Susceptible according” value in assay [7] (isolate 7122-2), in [8] (isolate 7084-5), in [9] (isolate 7122-1), in assay [10] (isolate 7174-5), in assay [11] (isolate 7174-4) and in assay [12] (isolate 7005-5) was “(S)” throughout. The “Resistant/Susceptible according” value in [13] (isolate 7174-2) and in assay [14] (isolate 7005-9) was “(S)” each time. Besides, the “Resistance among the isolates” value in assay [15] was “No resistance”.
Regarding `CO/N=C(\C(=O)N[C@@H]1C(=O)N2C(C(=O)[O-])=C(C[N+]3(C)CCCC3)CS[C@H]12)c1csc(N)n1` [Cefepime], the MIC in [1] is less than 4 µg/mL; in [2] it was 512 µg/mL; in assay [3] it was less than 4 µg/mL; in assay [4] it was less than 4 µg/mL; in assay [5], less than 4 µg/mL; in [6], 512 µg/mL. Further, the MIC in [7] was less than 4 µg/mL; in [8], less than 4 µg/mL; in assay [9], less than 4 µg/mL; in assay [10], less than 4 µg/mL; in assay [11], less than 4 µg/mL; in assay [12], 16 µg/mL. Moreover, the values for the MIC in [13] and in [14] were less than 4 µg/mL and 64 µg/mL, respectively.
As to `CN(C)[C@@H]1C(O)=C(C(N)=O)C(=O)[C@@]2(O)C(O)=C3C(=O)c4c(O)cccc4[C@@](C)(O)[C@H]3C[C@@H]12` [Tetracycline], the MIC in [1] is 16 µg/mL; in [3], 16 µg/mL; in assay [4], less than 4 µg/mL; in assay [5], 8 µg/mL; in [7], 8 µg/mL; in assay [8] it was 16 µg/mL. For the same compound, the MIC in [9] came to 16 µg/mL; in assay [10], 64 µg/mL; in [11], 128 µg/mL; in assay [13], 64 µg/mL.
